Here are results for seven compounds from patent US20100152261A1 (MITSUBISHI TANABE PHARMA CORPORATION, priority 2005, published 2010).

Where two headings read alike, the source gives them in different places.

The target of one experiment is T1, muscarinic M3 receptor (Cavia porcellus, UniProt H0W1Z3).
T1 construct: trachea was excised, and cut at every two tracheal cartilages to prepare tissue specimens; from tissue; host or cells: isolated guinea pig trachea (male Hartley)
Kind of experiment: Muscarinic M3 antagonistic action in isolated guinea pig trachea (carbachol-induced contraction, Schild method). It is filed as cell-based. The settings on record: compound applied 15 minutes before carbachol. The protocol: Muscarinic M3 Antagonistic Action in Isolated Guinea Pig Trachea
Male Hartley guinea pigs (350 to 600 g) were sacrificed by bleeding, and trachea was excised, and cut at every two tracheal cartilages to prepare tissue specimens. Each tissue specimen was kept warm at 37° C., suspended with a resting tension of 1 g in a 5-mL Magnus bath filled with a Krebs carbonate buffer containing indomethacin (1 μM) bubbled with 95% O2/5% CO2, and left for 60 minutes as a stabilization period. […] After the measurement, the tissue specimen was immediately washed, and left for 60 minutes as a stabilization period before the next contraction reaction, and the tissue specimen of which EC50 for the carbachol-induced contraction reaction was stabilized was considered as a control. Each test compound was applied 15 minutes before the addition of carbachol. The affinity (pA2) of the test compound was obtained by the Schild method (Arunlakshana, O. and Schild, H. O., Brit. J. Pharmacol., 1959, 14, 48-58).

The test system of experiment [1] is Bronchoconstriction in Guinea Pigs (induced with acetylcholine). Kind of experiment: Effect on bronchoconstriction in guinea pigs (via inhalation administration), Konzett method. It is filed as in vivo. The note with it: guinea pig, intratracheal administration 10 μL g/head, 24 hours after administration, acetylcholine 4 μg/kg i.v., versus control group; for inhibition in vivo at 0.01 mg: Cavia porcellus, iv, read-out: Percent of inhibition of bronchoconstriction (%). How it is done:
Effect on Bronchoconstriction in Guinea Pigs (Via Inhalation Administration)
The test was performed according to the method of Konzett et al. (Arch. Exp. Path Pharmak., 1940, 195, 71-74). Male Hartley guinea pigs (350 to 600 g) were anesthetized with urethane (1.8 g/kg, i.p.), and then a cannula for drug administration was inserted into each left jugular vein. After the immobilization with decamethonium (2 mg/kg, i.v.), a tracheal cannula was inserted, and controlled respiration was attained by a respirator (Harvard). Bronchoconstriction was measured as changes of airway pressure with a pressure transducer (Nihon Kohden Corp.). Each test compound was administered (10 μL g/head) from dissected trachea by using a device for intratracheal administration of liquid for guinea pigs (Penn Century), and after suture, the animals were returned to usual breeding. After 24 hours, acetylcholine (4 μg/kg, i.v.) was administered to induce bronchoconstriction, and inhibitory activity on bronchoconstriction was calculated as percent inhibition comparing to the change of airway pressure in control group was obtained.

The target in another experiment is T2, muscarinic M2 receptor (Cavia porcellus, UniProt H0VRN8).
T2 construct: left atria were excised to prepare tissue specimens; from tissue; host or cells: isolated guinea pig left atrium (male Hartley)
T2 sequence (H0VRN8 1-466): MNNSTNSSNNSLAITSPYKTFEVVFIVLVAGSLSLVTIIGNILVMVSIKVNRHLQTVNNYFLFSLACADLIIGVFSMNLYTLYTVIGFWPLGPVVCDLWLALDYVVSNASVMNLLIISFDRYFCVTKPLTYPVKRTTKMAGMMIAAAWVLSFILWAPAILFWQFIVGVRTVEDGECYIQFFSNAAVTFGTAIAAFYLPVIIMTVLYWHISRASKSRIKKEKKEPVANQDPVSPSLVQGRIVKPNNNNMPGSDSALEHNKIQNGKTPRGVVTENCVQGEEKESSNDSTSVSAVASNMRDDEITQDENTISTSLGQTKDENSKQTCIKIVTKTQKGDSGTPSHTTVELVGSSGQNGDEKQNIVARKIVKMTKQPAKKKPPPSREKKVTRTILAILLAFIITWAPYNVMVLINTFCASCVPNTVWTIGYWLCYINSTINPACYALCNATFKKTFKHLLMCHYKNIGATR
Nature of the experiment: Muscarinic M2 antagonistic action in isolated guinea pig left atrium (carbachol-induced relaxation, Schild method). It is filed as cell-based. The settings on record: compound applied 30 minutes before carbachol. How it is done: Muscarinic M2 Antagonistic Action in Isolated Guinea Pig Left Atrium […] Each tissue specimen was kept warm at 37° C., suspended with a resting tension of 0.5 g in a 5-mL Magnus bath filled with a Krebs carbonate buffer bubbled with 95% O2/5% CO2. Then, contraction evoked by field electrical stimulation (4 Hz, 2 msec, 1.5×threshold potential) was measured. After a stabilization period of 60 minutes, carbachol-induced relaxation was isometrically measured and recorded by the cumulative method from 10^−8 M with an interval of 90 seconds for one concentration in an equal ratio of 3. After the measurement, the tissue specimen was immediately washed, and left for 45 minutes as a stabilization period before the next observation. The tissue specimen of which EC50 for the carbachol-induced relaxation was stabilized was considered as a control. Each test compound was applied 30 minutes before the addition of carbachol. The affinity (pA2) of the test compound was obtained in the same manner as in the case of the trachea.

Setting [2] is: pA2 Trachea M3, isolated guinea pig trachea.
The mark [3] stands for this setting: pA2 Left atrium M2, isolated guinea pig left atrium.
Where [4] appears, read: isolated guinea pig left atrium.

T1 sequence (H0W1Z3 1-590): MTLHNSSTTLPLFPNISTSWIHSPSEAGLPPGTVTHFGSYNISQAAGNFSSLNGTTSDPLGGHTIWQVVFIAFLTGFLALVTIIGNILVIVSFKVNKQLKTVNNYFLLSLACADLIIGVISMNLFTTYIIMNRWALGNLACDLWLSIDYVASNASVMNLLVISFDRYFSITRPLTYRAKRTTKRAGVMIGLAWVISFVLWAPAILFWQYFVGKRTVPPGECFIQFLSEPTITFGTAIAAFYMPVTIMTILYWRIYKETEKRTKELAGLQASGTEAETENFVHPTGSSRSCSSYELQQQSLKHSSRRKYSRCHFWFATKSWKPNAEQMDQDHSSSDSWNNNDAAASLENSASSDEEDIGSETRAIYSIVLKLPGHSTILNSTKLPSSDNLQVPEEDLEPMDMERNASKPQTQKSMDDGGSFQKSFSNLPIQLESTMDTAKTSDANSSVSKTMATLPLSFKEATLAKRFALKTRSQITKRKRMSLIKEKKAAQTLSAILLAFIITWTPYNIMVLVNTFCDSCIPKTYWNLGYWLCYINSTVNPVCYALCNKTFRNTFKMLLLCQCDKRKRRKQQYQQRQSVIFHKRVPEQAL

For `C[n+]1ccn([C@H]2CC[C@H](C(C(N)=O)(c3ccccc3)c3ccccc3)C2)c1` (relative stereo) [Example 59, 3-(trans-3-(Carbamoyl(diphenyl)methyl)cyclopentyl)-1-methyl-3H-imidazol-1-ium iodide], the Kb on muscarinic M3 receptor (setting [2]) is 0.794 nM; at muscarinic M2 receptor (setting [3]) it was 20 nM. Besides, the inhibition in vivo at 0.01 mg in experiment [1] was determined as 90%.
For `Cc1cccc(C[n+]2ccn([C@H]3CC[C@@H](C(C(N)=O)(c4ccccc4)c4ccccc4)C3)c2C)c1` (relative stereo) [Example 8, 3-(cis-3-(Carbamoyl(diphenyl)methyl)cyclopentyl)-2-methyl-1-(3-methyl-benzyl)-3H-imidazol-1-ium bromide], in that order: 0.316 nM, 10 nM and 90%.
Regarding `Cc1n(Cc2ccc(F)cc2)cc[n+]1[C@H]1CC[C@@H](C(C(N)=O)(c2ccccc2)c2ccccc2)C1.[Br-]` (relative stereo) [Example 7, 3-(cis-3-(Carbamoyl(diphenyl)methyl)cyclopentyl)-1-(4-fluoro-benzyl)-2-methyl-1-3H-imidazol-1-ium bromide], on muscarinic M3 receptor (isolated guinea pig trachea), the “pA2 Trachea M3” value stood at 9.6. Further, in experiment [1], the “Percent of inhibition of bronchoconstriction (%)” value was 90%. Moreover, at muscarinic M2 receptor (setting [4]), the “pA2 Left atrium M2” value is reported as 8.5.
With `Cc1n([C@H]2CC[C@@H](C(C(N)=O)(c3ccccc3)c3ccccc3)C2)cc[n+]1CC[C@H]1CO1.[Br-]` (relative stereo) [Example 36, 3-(cis-3-(Carbamoyl(diphenyl)methyl)cyclopentyl)-2-methyl-1-(2-(S)-oxiranyl-ethyl)-3H-imidazo-1-ium bromide], at muscarinic M3 receptor (isolated guinea pig trachea), the “pA2 Trachea M3” value is on record as 9. In experiment [1], the “Percent of inhibition of bronchoconstriction (%)” value is recorded as 90%. Also, on muscarinic M2 receptor (setting [4]), the “pA2 Left atrium M2” value is listed as 7.7.
In the case of `CC(=O)C[n+]1ccn([C@@H]2CC[C@H](C(C(N)=O)(c3ccccc3)c3ccccc3)C2)c1C` [Example 90, 3-((1R,3S)-3-(Carbamoyl(diphenyl)methyl)cyclopentyl)-2-methyl-1-(2-oxopropyl)-3H-imidazol-1-ium bromide], the values for the Kb at muscarinic M3 receptor (setting [2]) and at muscarinic M2 receptor (setting [3]) were 0.794 nM and 316 nM, respectively. For the same compound, the inhibition in vivo at 0.01 mg in experiment [1] worked out at 100%.
As to `CC1=[N+](C)CCN1[C@@H]1CC[C@H](C(C(N)=O)(c2ccccc2)c2ccccc2)C1` [Example 60, 3-((1R,3S)-3-(Carbamoyl(diphenyl)methyl)cyclopentyl)-1,2-dimethyl-4,5-dihydro-3H-imidazol-1-ium para-toluenesulfonate], the Kb at muscarinic M3 receptor (isolated guinea pig trachea, read-out: pA2 Trachea M3 (converted)) was 0.631 nM; on muscarinic M2 receptor (isolated guinea pig left atrium, read-out: pA2 Left atrium M2 (converted)), 15.8 nM. Also, the inhibition in vivo at 0.01 mg in experiment [1] turned out to be 90%.
For `COCC[n+]1ccn([C@@H]2CC[C@H](C(C(N)=O)(c3ccccc3)c3ccccc3)C2)c1C` [Example 63, 3-((1R,3S)-3-(Carbamoyl(diphenyl)methyl)cyclopentyl)-1-(2-methoxyethyl)-2-methyl-3H-imidazol-1-ium bromide], the Kb at muscarinic M3 receptor (setting [2]) was 0.316 nM; on muscarinic M2 receptor (setting [3]) it was 7.94 nM. Further, the inhibition in vivo at 0.01 mg in experiment [1] is 100%.
